Results published in doi:10.1101/2023.11.24.568596v1 (biorxiv, 2023).

Legend:
Settings in all cases: binder
CaMK1g = CaMK1g (Homo sapiens, UniProt Q96NX5)
FECH = target: T1, FECH (Homo sapiens, UniProt P22830)
T1 sequence (P22830 1-423): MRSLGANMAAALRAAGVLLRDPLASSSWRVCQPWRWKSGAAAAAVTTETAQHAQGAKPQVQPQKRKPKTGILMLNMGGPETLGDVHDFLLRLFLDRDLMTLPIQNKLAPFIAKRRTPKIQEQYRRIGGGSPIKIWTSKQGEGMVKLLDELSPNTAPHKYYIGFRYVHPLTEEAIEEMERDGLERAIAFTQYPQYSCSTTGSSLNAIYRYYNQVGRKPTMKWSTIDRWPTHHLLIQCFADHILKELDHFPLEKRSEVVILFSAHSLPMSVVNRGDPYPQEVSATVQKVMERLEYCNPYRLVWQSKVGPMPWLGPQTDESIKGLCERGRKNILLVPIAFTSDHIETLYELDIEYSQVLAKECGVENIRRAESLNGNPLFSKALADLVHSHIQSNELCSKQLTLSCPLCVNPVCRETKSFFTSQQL

NEK1 = target: T2, NEK1 (Homo sapiens, UniProt Q96PY6)
T2 sequence (Q96PY6 1-1258): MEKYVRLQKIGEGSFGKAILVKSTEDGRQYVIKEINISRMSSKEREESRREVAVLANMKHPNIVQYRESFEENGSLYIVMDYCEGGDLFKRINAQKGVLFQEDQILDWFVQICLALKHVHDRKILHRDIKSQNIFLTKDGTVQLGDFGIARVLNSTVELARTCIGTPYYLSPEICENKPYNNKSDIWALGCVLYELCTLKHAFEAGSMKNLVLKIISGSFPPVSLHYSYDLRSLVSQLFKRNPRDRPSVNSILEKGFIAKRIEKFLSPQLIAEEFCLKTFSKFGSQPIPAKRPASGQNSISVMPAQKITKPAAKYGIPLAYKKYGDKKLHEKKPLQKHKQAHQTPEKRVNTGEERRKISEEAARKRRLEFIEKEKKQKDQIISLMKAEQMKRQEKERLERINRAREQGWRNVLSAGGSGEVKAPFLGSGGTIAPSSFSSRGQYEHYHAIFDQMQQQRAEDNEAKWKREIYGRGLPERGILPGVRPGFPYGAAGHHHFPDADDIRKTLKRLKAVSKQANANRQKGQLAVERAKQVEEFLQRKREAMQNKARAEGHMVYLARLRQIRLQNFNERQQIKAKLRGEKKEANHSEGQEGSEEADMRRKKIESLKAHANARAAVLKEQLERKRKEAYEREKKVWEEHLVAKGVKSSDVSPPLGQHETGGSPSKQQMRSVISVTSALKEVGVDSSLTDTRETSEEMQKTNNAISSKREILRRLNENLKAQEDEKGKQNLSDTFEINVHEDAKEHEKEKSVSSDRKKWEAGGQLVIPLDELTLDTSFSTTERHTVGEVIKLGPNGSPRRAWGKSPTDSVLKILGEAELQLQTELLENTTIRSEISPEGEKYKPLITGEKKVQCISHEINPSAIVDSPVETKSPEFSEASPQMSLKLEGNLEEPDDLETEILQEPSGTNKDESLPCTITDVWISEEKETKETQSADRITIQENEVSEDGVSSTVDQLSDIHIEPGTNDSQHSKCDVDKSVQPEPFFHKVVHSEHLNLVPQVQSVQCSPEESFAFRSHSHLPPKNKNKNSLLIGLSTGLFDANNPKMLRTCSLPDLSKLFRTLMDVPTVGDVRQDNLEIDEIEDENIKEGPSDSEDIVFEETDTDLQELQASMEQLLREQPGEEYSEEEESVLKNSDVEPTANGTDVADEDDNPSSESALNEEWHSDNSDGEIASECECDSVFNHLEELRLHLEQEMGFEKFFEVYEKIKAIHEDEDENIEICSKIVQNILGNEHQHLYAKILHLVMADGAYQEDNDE

NEK7 = NEK7 (Homo sapiens, UniProt Q8TDX7)
Chain of NEK7 (Q8TDX7 whole entry): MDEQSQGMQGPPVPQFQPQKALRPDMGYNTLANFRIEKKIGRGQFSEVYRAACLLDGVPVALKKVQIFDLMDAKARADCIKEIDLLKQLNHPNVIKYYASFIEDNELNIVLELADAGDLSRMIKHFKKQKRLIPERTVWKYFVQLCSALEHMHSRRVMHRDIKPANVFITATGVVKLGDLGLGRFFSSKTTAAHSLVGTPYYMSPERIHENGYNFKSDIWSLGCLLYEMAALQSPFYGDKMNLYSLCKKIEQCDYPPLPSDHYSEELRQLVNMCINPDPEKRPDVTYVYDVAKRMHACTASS

PLK4 = target: T3, PLK4 (Homo sapiens, UniProt O00444)
T3 sequence (O00444 1-970): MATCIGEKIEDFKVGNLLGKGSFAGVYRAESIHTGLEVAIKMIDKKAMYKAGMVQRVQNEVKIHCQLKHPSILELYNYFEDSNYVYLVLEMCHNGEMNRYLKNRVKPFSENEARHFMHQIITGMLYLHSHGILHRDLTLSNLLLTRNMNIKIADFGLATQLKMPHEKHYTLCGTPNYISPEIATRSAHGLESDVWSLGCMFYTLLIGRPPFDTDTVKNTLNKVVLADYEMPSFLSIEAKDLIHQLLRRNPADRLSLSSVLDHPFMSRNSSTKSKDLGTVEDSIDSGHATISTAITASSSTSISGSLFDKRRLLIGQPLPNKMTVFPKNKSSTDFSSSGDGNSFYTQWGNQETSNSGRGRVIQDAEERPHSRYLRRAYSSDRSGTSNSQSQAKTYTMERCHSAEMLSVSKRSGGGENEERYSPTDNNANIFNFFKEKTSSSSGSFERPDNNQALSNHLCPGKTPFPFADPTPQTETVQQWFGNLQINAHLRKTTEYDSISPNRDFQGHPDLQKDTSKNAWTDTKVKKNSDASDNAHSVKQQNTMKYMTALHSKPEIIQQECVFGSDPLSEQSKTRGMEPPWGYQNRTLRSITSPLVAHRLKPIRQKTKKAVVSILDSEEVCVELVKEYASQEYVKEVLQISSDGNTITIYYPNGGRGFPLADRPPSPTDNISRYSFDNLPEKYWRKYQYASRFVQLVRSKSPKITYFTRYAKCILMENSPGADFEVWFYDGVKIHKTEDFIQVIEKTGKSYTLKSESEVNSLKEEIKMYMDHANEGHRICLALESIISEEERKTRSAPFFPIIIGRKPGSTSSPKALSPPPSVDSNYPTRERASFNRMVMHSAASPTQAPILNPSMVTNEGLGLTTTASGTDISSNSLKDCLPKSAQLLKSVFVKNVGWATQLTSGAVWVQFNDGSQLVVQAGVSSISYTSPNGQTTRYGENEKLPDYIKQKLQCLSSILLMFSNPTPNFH

p38a = p38a (Homo sapiens, UniProt Q16539)
Chain of p38a (Q16539 whole entry): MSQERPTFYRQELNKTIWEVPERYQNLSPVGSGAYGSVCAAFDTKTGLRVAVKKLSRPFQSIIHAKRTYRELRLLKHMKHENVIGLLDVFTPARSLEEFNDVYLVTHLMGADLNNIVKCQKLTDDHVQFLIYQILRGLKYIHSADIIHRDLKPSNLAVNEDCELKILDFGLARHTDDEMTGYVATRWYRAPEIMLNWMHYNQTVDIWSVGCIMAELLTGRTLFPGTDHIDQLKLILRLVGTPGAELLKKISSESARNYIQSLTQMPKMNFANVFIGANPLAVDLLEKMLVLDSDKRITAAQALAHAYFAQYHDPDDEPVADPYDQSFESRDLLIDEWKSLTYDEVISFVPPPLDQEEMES

Chain of CaMK1g (Q96NX5 whole entry): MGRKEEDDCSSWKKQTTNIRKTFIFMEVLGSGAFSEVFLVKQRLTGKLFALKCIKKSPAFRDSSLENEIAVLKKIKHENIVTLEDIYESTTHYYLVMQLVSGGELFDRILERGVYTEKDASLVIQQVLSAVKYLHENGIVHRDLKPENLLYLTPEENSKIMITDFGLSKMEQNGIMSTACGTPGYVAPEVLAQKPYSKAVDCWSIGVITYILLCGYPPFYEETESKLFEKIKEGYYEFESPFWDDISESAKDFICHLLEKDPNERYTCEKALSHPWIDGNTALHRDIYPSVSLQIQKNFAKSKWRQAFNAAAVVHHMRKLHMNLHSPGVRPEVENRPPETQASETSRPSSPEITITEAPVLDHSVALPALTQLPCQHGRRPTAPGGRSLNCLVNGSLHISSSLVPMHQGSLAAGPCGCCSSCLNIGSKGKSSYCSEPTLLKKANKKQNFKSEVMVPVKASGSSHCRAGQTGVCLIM

Cc1cccc(-c2ccc(-c3cc4cnc(NCCCN5CCNCC5)nc4n(CCCCN)c3=O)c(Cl)c2)n1 [compound 29, 8-(4-Aminobutyl)-6-(2-chloro-4-(6-methylpyridin-2-yl)phenyl)-2-((3-(piperazin-1-yl)propyl)amino)pyrido[2,3-d]pyrimidin-7(8H)-one]
ΔTm 29 (CaMK1g): 5.0 °C | ΔTm 29 (FECH): -0.4 °C | ΔTm 29 (NEK1): 0.3 °C | ΔTm 29 (NEK7): -0.2 °C | ΔTm 29 (PLK4): 4.2 °C | ΔTm 29 (p38a): 3.2 °C

Cc1cccc(-c2ccc(-c3cc4cnc(NCCCN5CCCC5=O)nc4n(CCCCN)c3=O)c(Cl)c2)n1 [compound 27, MR30]
ΔTm MR30 (27) (CaMK1g): 3.6 °C | ΔTm MR30 (27) (FECH): 0.5 °C | ΔTm MR30 (27) (NEK1): -0.3 °C | ΔTm MR30 (27) (NEK7): -0.4 °C | ΔTm MR30 (27) (PLK4): 4.5 °C | ΔTm MR30 (27) (p38a): 3.6 °C

Cc1cccc(-c2ccc(-c3cc4cnc(Nc5ccc(O)cc5)nc4n(CCCCN)c3=O)c(Cl)c2)n1 [compound 31, 8-(4-Aminobutyl)-6-(2-chloro-4-(6-methylpyridin-2-yl)phenyl)-2-((4-hydroxyphenyl)amino) pyrido[2,3-d]pyrimidin-7(8H)-one]
ΔTm 31 (CaMK1g): 5.5 °C | ΔTm 31 (FECH): 2.0 °C | ΔTm 31 (NEK1): -3.3 °C | ΔTm 31 (NEK7): -1.6 °C | ΔTm 31 (PLK4): 12.2 °C | ΔTm 31 (p38a): 4.7 °C

Cc1cccc(-c2ccc(-c3cc4cnc(Nc5ccc(CCCO)cc5)nc4n(CCCCN)c3=O)c(Cl)c2)n1 [compound 30, 8-(4-Aminobutyl)-6-(2-chloro-4-(6-methylpyridin-2-yl)phenyl)-2-((4-(3-hydroxypropyl)phenyl)amino)pyrido[2,3-d]pyrimidin-7(8H)-one]
ΔTm 30 (CaMK1g): 7.5 °C | ΔTm 30 (FECH): 0.5 °C | ΔTm 30 (NEK1): -3.1 °C | ΔTm 30 (NEK7): -0.9 °C | ΔTm 30 (PLK4): 12.6 °C | ΔTm 30 (p38a): 5.5 °C

Cc1cccc(-c2ccc(-c3cc4cnc(Nc5cc(C(F)(F)F)ccc5C)nc4n(CCCCN)c3=O)c(Cl)c2)n1 [compound 28, 8-(4-Aminobutyl)-6-(2-chloro-4-(6-methylpyridin-2-yl)phenyl)-2-((2-methyl-5-(trifluoromethyl)phenyl)amino)pyrido[2,3-d]pyrimidin-7(8H)-one]
ΔTm 28 (CaMK1g): 5.7 °C | ΔTm 28 (FECH): 10.6 °C | ΔTm 28 (NEK1): 0.2 °C | ΔTm 28 (NEK7): -0.7 °C | ΔTm 28 (PLK4): 8.0 °C | ΔTm 28 (p38a): 3.9 °C

Cc1cccc(-c2ccc(-c3cc4cnc(Nc5ccc(C)c(O)c5)nc4n(CCCCN)c3=O)c(Cl)c2)n1 [compound 32, 8-(4-Aminobutyl)-6-(2-chloro-4-(6-methylpyridin-2-yl)phenyl)-2-((3-hydroxy-4-methylphenyl)amino)pyrido[2,3-d]pyrimidin-7(8H)-one]
ΔTm 32 (CaMK1g): 6.4 °C | ΔTm 32 (FECH): 3.8 °C | ΔTm 32 (NEK1): -3.0 °C | ΔTm 32 (NEK7): -0.6 °C | ΔTm 32 (PLK4): 11.5 °C | ΔTm 32 (p38a): 5.3 °C
